How the values were obtained:
[1] = system: HbF-positive primary erythroid progenitors; assay: Anti-HbF FITC immunostaining of primary erythroid progenitors; type: cell-based, human; conditions: anti-HbF FITC / DAPI, 500 cells counted; 15.5% HbF-positive at baseline in untreated cells
Method: (§1) The two-phase liquid culture system was established as previously published by Fibach et al. using buffy coat mononuclear cells, purchased from Carter Blood Care (Fort Worth, TX) in accordance with the guidelines of the Institutional Review Board at the University of Texas at Dallas. During phase 1, cells were grown in IMDM medium with 30% fetal bovine serum and 50 ng/mL each of the granulocyte-monocyte colony-stimulating factor, Interleukin-3, and stem cell factor. Subsequently, phase 2 was initiated on day 7 with the addition of erythropoietin (2 U/mL) and stem cell factor (50 ng/mL). The cells were treated on Day 11 with the different test compounds and harvested on Day 14 (72 hr incubation).
Primary erythroid progenitor cytospin cell preparations were fixed with 4% paraformaldehyde in phosphate buffered saline for 15 min, washed, and then permeabilized with 0.3% Trition-100 solution for 10 min. Cells were then blocked in a 5% bovine serum albumin solution and immunostaining performed at 4°C overnight with anti-HbF fluorescein isothiocyanate (FITC) conjugated antibody (Bethyl Laboratories Inc., TX). Cell nuclei were stained with mounting medium containing 4′,6-diamidino-2-phenylindole (DAPI; Santa Cruz Biotechnology, CA). Primary cells were photographed with an Olympus BX 51 phase contrast epifluorescent microscope equipped with Hoffman Modulation optics. Phase-contrast images were recorded with a CCD camera (1/100 sec exposure) and fluorescence images were photographed through 485/520 nm emission filter. The percent of HbF positive cells was calculated by dividing the number of FITC positive cells by total cells (DAPI positive).
(§2) Figure 3 JMA33 and JMA26 induce HbF in primary erythroid cells. (a) Day 11 erythroid progenitors were treated for 48 hr with the controls agents and the FK228 analogues shown and then analyzed by RT-qPCR. Untreated cells (UT) were used as a control and normalized to one. Data were calculated as the means ± SEM. […] The images generated were used to count 500 DAPI positive cells and the %FITC positive cells were calculated accordingly.

[2] = system: γ-globin promoter activity in KU812-γF/βR stable lines; assay: KU812 dual-luciferase reporter stable lines (μLCRβprRluc AγprFluc), γ-globin promoter activity; type: cell-based, human; conditions: 48 hr; for Fold change (γ/γ + 2β): untreated normalized to one
From the text: KU812 stable cell lines were created by co-transfecting wild-type KU812 cells with pEGFP-NI (G418 selectable marker) and theμLCRβ prRluc ^A γ prFluc dual-reporter a kind gifts from Dr. George Stamatoyannopoulos (University of Washington). […] Likewise, 1.4 kb of human Aγ-globin promoter was inserted upstream of firefly luciferase to create ^A γ prFluc. The μLCR (locus control region), Pβ prRluc, and ^A γ prFluc fragments were subsequently cloned into the mammalian vector, pRL-null.
After 72 hr, G418 was added at a concentration of […] for 3 days then maintained under selection pressure indefinitely at a concentration of […]. KU812 stable lines were treated with the various drugs at the same concentrations described above. FK228 and analogues were screened at concentrations between 1–1000 nM for 48 hr and cell toxicity was monitored by 2% Trypan blue exclusion. The effect of drug treatments on γ-globin and β-globin promoter activity was monitored by luciferase assay.
Luciferase activity was monitored under the different experimental conditions using the Dual Luciferase Assay Reporter System (Promega, Madison, WI). The activity of firefly luciferase represents γ-globin promoter activity (γF), while the renilla luciferase is the read-out for β-globin promoter activity (βR). The β-globin promoter was strategically cloned between the LCR and γ-globin promoter to increase β expression, while simultaneously increasing the sensitivity of detection of γ-globin gene inducers.
After drug treatments, KU812 stable cells were washed with 1X phosphate buffered saline and lysed in 1X Passive Lysis Buffer for 15 min, then protein extracts were added to the Luciferase Assay Reagent II and firefly luciferase activity quantified in a Turner Designs TD-20/20 luminometer (Sunnyvale, CA). To measure βR activity, Stop & Glo Reagents was added to measure the renilla luciferase activity. Total protein was determined by Bradford assay on a Beckman DU 640 spectrophotometer (Chaska, MN) and luciferase activity was corrected for total protein.
Subsequently, three independent dual-luciferase reporter KU812 stable cell lines were established to analyze the ability FK228 analogues to induce γ-globin promoter activity without an effect on β-globin transcription. […] Since the firefly luciferase gene (γF) has approximately […] luminescence than the renilla gene (βR), the renilla activity was multiplied by two to adjust for the difference in luminescence yielding the γ/γ+2β final measurement. The FK228 analogues were examined at concentrations ranging from 1–1000 nM in the three stable lines. After 48-hour treatments, cells were harvested and protein isolated for luciferase activity using the Dual Luciferase Reporter Assay.

[3] = system: HbF levels in primary erythroid cells; assay: HbF ELISA in primary erythroid cells; type: cell-based, human; conditions: for Fold change in HbF levels: relative to untreated = 1, concentrations as in E7; for Fetal hemoglobin quantification, Mean (HbF/total Hb/total protein): treated Day 11, harvested Day 14, conc: Cys 10 mM, Hemin 50 μM, SAHA 2000 nM, FK228 1.5 nM, JMA1 1.5 nM, JMA2 1.0 nM, JMA26 500 nM, JMA33 1000 nM, untreated 0.683
Method: as §1
Total hemoglobin was quantified using 20 μL of protein extract from one million KU812 cells mixed with 5 mL of Drabkin's reagent (Sigma); then cyanmethemoglobin was measured at the 540 nm wavelength. HbF levels were quantified using the human Hemoglobin F ELISA Quantitation Kit (Bethyl Laboratory, Montgomery, TX). Briefly, 96-well plates were coated with sheep anti-human HbF antibody (1 mg/mL). After blocking with 1% bovine serum albumin, horse radish peroxidase-conjugated secondary antibody (1 mg/mL) was added. Raw data were analyzed using GraphPad PRISM (GraphPad Software, Inc., La Jolla, CA) and HbF levels were calculated as a ratio of total hemoglobin corrected for total protein (HbF/total Hb/total protein).

[4] = system: γ-globin transcription in primary erythroid progenitors; assay: RT-qPCR of γ-globin mRNA in primary erythroid progenitors (two-phase liquid culture); type: cell-based, human; conditions: Day 11 erythroid progenitors treated 48 hr (Figure 3 legend), untreated normalized to one
Method: as §1
Total RNA was isolated from samples using RNA Stat-60 (TEL-TEST “B” Inc., Friendswood, TX) and used for RT-qPCR analysis as previously published. […] The globin mRNA levels were calculated as a ratio of GAPDH (γ/GAPDH, β/GAPDH), and the γ/β-globin mRNA ratio was calculated by dividing γ/GAPDH by β/GAPDH.
as §2, with “Untreated cells (UT) were used as a control and normalized to one.” left out

sickle-cell patients = conditions: sickle cell patients treated with hydroxyurea; cited from earlier work
From the text: Several classes of pharmacological compounds that reactivate γ-globin gene transcription have been identified. They include cytotoxic agents, DNA methyl transferase, and histone deacetylase (HDAC) inhibitors. Cytotoxic compounds terminate actively cycling progenitors and perturb cellular growth to trigger rapid erythroid regeneration and γ-globin gene activation. S-stage cytotoxic drugs, such as cytosine arabinoside, myleran, vinblastine, and hydroxyurea, induce HbF production in primates and humans. The Multicenter Study of Hydroxyurea established ...

[5] = system: γ-globin gene transcription in KU812 cells; assay: RT-qPCR of γ/β-globin mRNA in wild type KU812 cells; type: cell-based, human; conditions: 48 hr, Hem 50 μM, NaB 2 mM, SAHA 2 μM, FK228 1.5 nM, Cys 10 mM, untreated normalized to one, range over the drugs
Method: Human KU812 leukemia cells were grown in Iscove's Modified Dulbecco's medium (IMDM) (Invitrogen, Carlsbad, CA) with 10% fetal bovine serum (Atlanta Biologicals, Atlanta, GA), penicillin (100 U/mL), and streptomycin (0.1 mg/mL). The cells were incubated at 37°C with 5% CO2. Cell count and viability were determined using a hemocytometer and 2% Trypan blue exclusion. Inductions were performed with one million cells treated for 48 hr with the following drugs purchased from Sigma (St Louis, MO): 50 μM Hem (hemin), 2 mM NaB (sodium buytrate), 0.5 μM TSA, 10 mM Cys (cysteine), 1.5 nM FK228, and 100 μM HU (hydroxyurea). […] Inc. (Whitehouse Station, NJ).
Total RNA was isolated from samples using RNA Stat-60 (TEL-TEST “B” Inc., Friendswood, TX) and used for RT-qPCR analysis as previously published. […] The globin mRNA levels were calculated as a ratio of GAPDH (γ/GAPDH, β/GAPDH), and the γ/β-globin mRNA ratio was calculated by dividing γ/GAPDH by β/GAPDH. […]
Figure 2 Known HbF inducers activate γ-globin expression in KU812 cells. […] Cells were treated for 48 hr with the different drug inducers and γ-globin and β-globin gene transcription were measured by RT-qPCR (see Section 2). […] Data were calculated as the means ± standard error of the mean (SEM); *P < 0.05 and **P < 0.01. […]

[6] = system: HDAC activity in HeLa cells; assay: HDAC Fluorescent Activity Assay (Fluor de Lys) in HeLa cells; type: cell-based, human; conditions: TSA 0.5 to 1000 nM; HeLa cells, Fluor de Lys substrate, fluorescence 440 nm
Method: The HDAC Fluorescent Activity Assay (Enzo Life Science, Farmingdale, NY) was used to measure HDAC inhibition in HeLa cells in a 96-well format using Trichostatin A as the positive control per the manufacturer's protocol. This assay is based on the Fluor de Lys (Fluorogenic Histone Deacetylase Lysyl (FDL)) Substrate/Developer. The procedure was as follows: the test compounds FK228, JMA26, and JMA33 were added to HeLa cells along with the FDL substrate to allow intracellular drug activation then fluorescence levels were read on the fluorometer at 440 nm (CytoFluor II, PerSeptive Biosystems, Farmingdale, NY). The drug concentrations tested were based on the amount required for HbF induction in primary cells. Data was reported as the mean ± standard deviation (SD) for at least five replicates.
To ascertain the mechanism of HbF induction by the lead compounds, we performed an in vivo assay to investigate the ability of JMA26 and JMA33 to act as HDAC inhibitors. The HDAC Fluorescent Activity Assay designed to measure HDAC activity in HeLa cells was completed in a 96-well format. The assay is based on the fact that the Fluor de Lys substrate is deacetylated by HDACs to generate a fluorescent readout. TSA (0.5 to 1000 nM) was used to establish the assay in HeLa cells, showing about 80% HDAC inhibition in our system (Figure 4(a)).
Figure 4 HDAC inhibition assay. The HDAC Fluorescent Activity Assay was used to measure HDAC inhibition in HeLa cells (See Section 2). Compounds and FDL substrate were added to HeLa cells to allow drug activation in vivo then fluorescence levels were quantified on the fluorometer at 440 nm. (a) Trichostatin A (TSA) was used as the control. (b) Inhibition studies were conducted for FK228 showing maximal HDAC inhibition at the 300 nM concentration. (c) Similar studies were performed for JMA33 and JMA26. The data are reported as the means ± SEM.

[7] = Line 1, firefly (γ) / renilla (β) luciferase corrected for total protein, mean, conc: Cys 10 mM, Hemin 50 μM, SAHA 2000 nM, FK228 1.5 nM, 1127Ox 1000 nM, JMA1 1.5 nM, JMA2 1.0 nM, JMA12 1000 nM, JMA26 500 nM, JMA33 1000 nM, JMA112 100 nM, untreated 0.0402
[8] = Line 1, concentrations as in E1
[9] = Line 2, concentrations as in E1, untreated 0.1573
[10] = Line 2, concentrations as in E1
[11] = Line 3, concentrations as in E1, untreated 0.0721
[12] = Line 3, concentrations as in E1

Molecule	increase in HbF-positive cells [1] [fold]	γ/γ + 2β Mean [2, 7]	Fold change (γ/γ + 2β) [2, 8]	γ/γ + 2β Mean [2, 9]	Fold change (γ/γ + 2β) [2, 10]	γ/γ + 2β Mean [2, 11]	Fold change (γ/γ + 2β) [2, 12]	Fold change in HbF levels [3] [fold]	Fetal hemoglobin quantification, Mean (HbF/total Hb/total protein) [3]	induction of γ-globin transcription at the mRNA level [4] [fold]	non-response rate (sickle-cell patients) [%]	increase in the γ/β-globin mRNA levels [5]	HDAC inhibition [6]
O=C(CCCCCCC(=O)Nc1ccccc1)NO [SAHA, suberoylanilide hydroxamic acid]	3.2	0.2157	5.400	0.6500	4.140	0.2520	3.500	1.602	1.094	≤ 3.2	–	–	–
NC(=O)NO [hydroxyurea]	–	–	–	–	–	–	–	–	–	–	30	–	–
N[C@@H](CS)C(=O)O [Cys, cysteine]	–	0.0388	0.950	0.1200	0.764	0.0860	1.194	1.079	0.737	–	–	not induced	–
CC(/C=C/C(=O)NO)=C\[C@@H](C)C(=O)c1ccc(N(C)C)cc1 [TSA, Trichostatin A]	–	–	–	–	–	–	–	–	–	–	–	–	about 80%
hemin	3.0	0.1732	4.325	0.6593	4.261	0.2508	3.486	2.218	1.515	–	–	–	–
